Source: article PMC7397040, “New Copper(I) Complex with a Coumarin as Ligand with Antibacterial Activity against Flavobacterium psychrophilum” (Molecules, 2020)
In brackets after ≈: the same amount, converted by molar mass. Where two headings read alike, the source gives them in different places. Marks after values point to notes of the source that are not given here.

Legend:
[1] = parameters: method as in PMID 30177987; conditions: versus Ag/AgCl in CH2Cl2 ref 18; cited from earlier work
[2] = test system: Chinook salmon embryo (CHSE-214) cells; assay: cells; conditions: for toxicity (in words): CHSE-214, 512 to 2 μg/mL, 24 h; for IC50 (cellular): CHSE-214, 24 h at 16 °C, n = 6
Protocol: (§1) Since F. psychrophilum is a bacterial pathogen that affects a wide variety of salmonids, we evaluated the toxicity of the [Cu(NN1)2]ClO4 complex in three different cell lines, Chinook salmon embryo (CHSE-214), Salmon Head Kidney-1 (SHK-1) and intestinal epithelial cell line (RT-GUT). For this experiment 1 × 10^5 cells were treated with the different compounds (coumarin, Cu(I) salt and copper (I) complex) in a range of concentrations between 512 μg/mL and 2 μg/mL, incubated at 16 °C for 24 h.
(§2) 1 × 10^5 Cells were seeded and incubated at 16 °C for 24 h. Later, the cells were treated with compounds in concentrations from 512 μg/mL to 2 μg/mL solubilized in dimethyl sulfoxide (DMSO, Merck, Darmstadt, Germany) and incubated at 16 °C for 24 h. Subsequently, the cells were collected, pelleted and resuspended in IF buffer (1X buffer and 2% fetal bovine serum) and 1 µL propidium iodide (PI, 1 mg/mL) was added. The cellular viability (negative to PI) was analyzed by flow cytometer using FACSCanto II Cytometer (BD biosciences, University of Santiago of Chile, Santiago, RM, Chile). For positive control, cells were incubated without compounds; for death control, cells were incubated with 50% ethanol; medium control cells were treated with medium containing 1% of DMSO. To calculate the IC50 of compounds in the cell lines, they were analyzed using GraphPad Prism program 5.0 (GraphPad Software, San Diego, CA, USA), the concentrations were transformed into log (10) and the number of events normalized in percentage, for the calculation of IC50 a nonlinear regression was performed.

[3] = test system: intestinal epithelial cell line (RT-GUT); assay: cells; conditions: for toxicity (in words) / IC50 (cellular): RT-GUT; for toxicity (in words): 512 to 2 μg/mL; for IC50 (cellular): 24 h at 16 °C, n = 6
Protocol: as §1, §2

[4] = test system: Salmon Head Kidney-1 (SHK-1) cells; assay: cells; conditions: for toxicity (in words): SHK-1, 512 to 2 μg/mL; for IC50 (cellular): SHK-1, 24 h at 16 °C, n = 6
Protocol: as §1, §2

[5] = test system: Flavobacterium psychrophilum 10094; assay: Antibacterial test (microdilution: MIC, MBC, IC50); format: cell-based; conditions: for MBC / MIC: n = 3; for MIC: F. psychrophilum 10094, 72 h post-incubation, visual; for Amount Cu in MBC / Amount Cu in MIC / Amount Total in IC50 / Amount Total in MBC / Amount Total in MIC: F. psychrophilum; for Amount Cu in MBC / Amount Cu in MIC: amount of copper contained; for Amount Total in IC50 / Amount Total in MBC / Amount Total in MIC: total compound
Protocol: A bacterial strain of Flavobacterium psychrophilum (ETECMA) originally isolated from Salmon Coho (Oncorhynchus kisutch) in 2008 in Chiloe, Chile, was used for antibacterial test. […] The strain was cultivated in TYES broth (pH = 7.2) at 15 °C for 48 h with stirring at 180 rpm.
To determine MIC, MBC and IC50 of complex and its precursors, microdilution method was performed with some modifications. F. psychrophilum 10094 (0.4 OD600 nm = 1 × 10^8 CFU/mL, approximately) was inoculated in TYES broth pH 7.2 to 1% cell suspension in 96-well plates (Falcon) and treated with complex and its precursors in serial concentrations between 512 μg/mL to 2 μg/mL and incubated for 72 h at 15 °C with agitation at 180 rpm. The MIC was determined as the lowest compounds concentrations which inhibited bacterial grow by visual comparison with the negative control (TYES broth). […] The MBC was determined as the minimum concentration of the compounds at which the bacterial colony count was diminish to 99.9%. For determination of the half-maximal inhibitory concentration (IC50) of compounds on F. psychrophilum, the OD600 nm of each wells was measured using Nanoquant Infinite M200 Pro (TECAN, Grödig, Austria). For the correct calculation of the OD of each concentration of each compound, wells with TYES medium were used with each concentration without inoculating with F. psychrophilum, this control OD was subtracted obtaining the final OD. Data were analyzed using the GraphPad Prism program 5.0.

[6] = Cyclic voltammetry, Cu(II)/Cu(I) oxidation potential; format: physicochemical; conditions: vs Ag/AgCl, CH2Cl2, 0.1 M TBAP, quasireversible, ΔE = 114 mV
Protocol: Voltammetry studies were also performed in order to determine the effect of new NN1 ligand on the Cu(II)/Cu(I) oxidation potential considering the well-known fact of high influence of ligands on the metal-centered HOMO energy. Consequently, measurements were registered at room temperature in −1.10 to +1.30 V vs Ag/AgCl potential range.
(§3) All the chemicals were purchased commercially and used without further purification. ^1H, ^13C NMR and 2D spectra were recorded on a Bruker Avance Neo 400 MHz spectrometer (400.133 MHz for ^1H, 40.559 MHz for ^15N and 100.613 MHz for ^13C, (University of Santiago of Chile, Santiago, RM, Chile) equipped with a 5 mm multinuclear broad-band dual probehead, incorporating a z-gradient coil. All the measurement was done in CDCl3 at 300 K. Chemical shifts (in ppm) for ^1H and ^13C were calibrated respect to the residual protonated signal of the solvent (7.26 and 77 ppm respectively) and reported relative to Me4Si. The ^15N signal in ^1H ^15N HMBC were calibrated relative to CH3NO2 (90%) in CDCl3). […] Electronic spectra were recorded on a PerkinElmer UV-VIS Lambda 25 spectrophotometer (University of Santiago of Chile, Santiago, RM, Chile) at room temperature, wavelength range between 200 and 1100 nm from 1.5 × 10^−5 mol/L solutions in dichloromethane to NN1 and [Cu(NN1)2]ClO4. […]

[7] = Stability in solution by UV-Vis spectra; format: physicochemical; conditions: 72 h after the solution was prepared, CHCl3, air-exposed, room temperature
Protocol: The spectral region below 400 nm in complex correspond at π to π* intraligand transition bands, which are similar profile of free ligand, but undergo a red-shift upon complexation to copper(I) in around 20 nm.
as §3, with “CDCl3). The following abbreviations were used to explain the multiplicities: s = singlet, d = doublet, m = multiplet.” for “CDCl3).”, “Electrochemical behavior was studied by cyclic voltammetry using” for “Electronic spectra were recorded on”, “potentiostat CHI 620E by CH instrument equipment supplied with the electrochemical analyzer CHI software” for “PerkinElmer UV-VIS Lambda 25 spectrophotometer”, “Chile).” for “Chile) at room temperature, wavelength range between 200 and 1100 nm from 1.5 × 10^−5 mol/L solutions in dichloromethane to NN1 and [Cu(NN1)2]ClO4.”

[8] = F. psychrophilum 10094, colony count diminished to 99.9%
[9] = F. psychrophilum 10094, 72 h post-incubation at 15 °C, OD600, n = 3

Row | SMILES | toxicity (in words) [2] | toxicity (in words) ([3]; 24 h) | toxicity (in words) ([4]; 24 h) | MBC [5, 8] [µg/mL] | IC50 (cellular) [2] | IC50 (cellular) [3] | IC50 (cellular) [4] | IC50 (bacterial) [5, 9] | MIC [5] [µg/mL] | Amount Cu in MBC [5] [µg/mL] | Amount Cu in MIC [5] [µg/mL] | Amount Total in IC50 [5] [µg/mL] | Amount Total in MBC [5] [µg/mL] | Amount Total in MIC [5] [µg/mL] | also measured
1 | [Cu+].[O-][Cl+3]([O-])([O-])[O-].c1ccc2nc(-c3ccc4ccccc4n3)ccc2c1.c1ccc2nc(-c3ccc4ccccc4n3)ccc2c1 [[Cu(biq)2]ClO4] | – | – | – | – | – | – | – | – | – | – | – | – | – | – | E1/2 [1]: 0.96 V
2 | O=c1ccc2ccccc2o1 [Coumarin, 1-benzopyran-2-one] | toxicity was not observed | toxicity was not observed | toxicity was not observed | >512 | – | – | – | – | – | – | – | – | – | – | IC50 ([2]; CHSE-214, 24 h, read-out: IC50 (cellular)): > 512 µg/mL; IC50 ([3]; Oncorhynchus mykiss, Epithelial cell, 24 h, read-out: IC50 (cellular)): > 512 µg/mL; IC50 ([4]; 24 h, read-out: IC50 (cellular)): > 512 µg/mL; MBC ([5]; Flavobacterium psychrophilum, 10094, F. psychrophilum 10094, colony count diminished to 99.9%, read-out: MBC): < 512 µg/mL; IC50 ([5]; Flavobacterium psychrophilum, F. psychrophilum 10094, 72 h post-incubation at 15 °C, OD600, n = 3, read-out: IC50 (bacterial)): 160 ± 25.5 µg/mL (≈ 1.09 mM); MIC ([5]; Flavobacterium psychrophilum, read-out: MIC): 512 µg/mL (≈ 3.5 mM)
3 | O=c1ccc2cc(N=Cc3ccc4ccccc4n3)ccc2o1.O=c1ccc2cc(N=Cc3ccc4ccccc4n3)ccc2o1.[Cu+].[O-][Cl+3]([O-])([O-])[O-] [[Cu(NN1)2]ClO4] | concentration-dependent toxicity was observed | concentration-dependent toxicity was observed | concentration-dependent toxicity was observed | 32 | 29.1 ± 1.4 ^b µg/mL | 53.0 ± 3.1 ^b µg/mL | 30.8 ± 1.3 ^b µg/mL | 16.1 ± 0.9 ^c µg/mL | 32 | 2.7 | 2.7 | 16.1 | 32 | 32 | E1/2 Cu(II)/Cu(I) couple [6]: 0.426 V; stability in solution (changes in UV-Vis spectral bands) [7]: No significant changes in the spectral bands
4 | CC#N.CC#N.CC#N.CC#N.[Cu+].[O-][Cl+3]([O-])([O-])[O-] [[Cu(CH3CN)4]ClO4] | concentration-dependent toxicity was observed | concentration-dependent toxicity was observed | concentration-dependent toxicity was observed | 64 | 59.4 ± 4.1 ^a µg/mL | 233.9 ± 19.5 ^a µg/mL | 159 ± 44.6 ^a µg/mL | 10.4 ± 0.7 ^b µg/mL | 64 | 12.5 | 12.5 | 10.4 | 64 | 64 | –
